In experiment [1] the target is T1, B-RAFV600E (Homo sapiens, UniProt P15056, V600E).
T1 construct: purchased Millipore, USA 14-557
Nature of the experiment: B-RAFV600E radiometric assay. In kind it is biochemical. The conditions noted are these: read-out: Kinase assay B-Raf. The essentials:
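B-RAFV600E was preincubated 45 min at rt with compound in 1% DMSO. MEK-K97M (0.5 μg), 5 μM final cold ATP and [γ-32P]ATP were then added for 2 h at rt. Phosphorylated MEK was captured on P81 paper and scintillation-counted; IC50 came from a sigmoidal dose-response fit.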

Experiment [2] deals with T2, mTOR kinase (Homo sapiens, UniProt P42345).
T2 construct: purchased Millipore, US
Nature of the experiment: mTOR kinase TR-FRET assay. In kind it is biochemical. The essentials: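 TR-FRET with ULight-p70 S6K (Thr 389) peptide (50 nM) and 20 μM ATP in 50 mM HEPES pH 7.5, 1 mM EGTA, 3 mM MnCl2; compound pre-incubated with enzyme before substrate addition, reaction at rt, EDTA-stopped. Eu anti-phospho antibody read 665/615 nm; IC50 from sigmoidal dose-response fit.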
In general terms: Time-resolved FRET reads energy transfer from a long-lived donor to a nearby acceptor.

The subject of experiment [3] is pERK in A375 cells. Nature of the experiment: In Cell Western (ICW) assay, pERK in A375 cells. The class given is cell-based. The note with it: Homo sapiens, A-375, 3 h treatment. The essentials:
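After a 3 h compound treatment at 37 °C, fixed RKO or A375 cells were probed for phospho-ERK1/2 (T202/Y204), phospho-S6RP or phospho-AKT T308 and detected with a Eu-tagged anti-rabbit antibody (ex 340/em 615 nm), with Hoechst signal as the cell-number correction. Inhibition was referenced to DMSO, and IC50 values came from sigmoidal dose-response curves.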

Experiment [4] deals with A375 cells. Nature of the experiment: XTT assay for cell viability, A375 cells. The class given is cell-based. The conditions noted are these: Homo sapiens, A-375, 72 h. The essentials:
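GI50 derived by sigmoidal dose-response fitting of proliferation normalised to DMSO control (100%). Readout: A450 after 2-3 h with XTT (1 mg/ml)/PMS (25 μM), following 72 h compound treatment at 37° C., 5% CO2 of cells plated at 1000-2000 per well the previous day.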

The subject of experiment [5] is pERK in RKO cells. Description: In Cell Western (ICW) assay, pERK in RKO cells. In kind it is cell-based. The note with it: Homo sapiens, 3 h treatment. On the procedure: Cell lines A375, A2058 and RKO obtained from the ATCC as provided above, were grown, and after attaining ˜80% confluency were trypsinized, centrifuged and resuspended in fresh media. The cells were seeded at the specified density (20,000 to 50,000) in a 96-well format black-well clear bottom plate (Corning) and incubated overnight at 37° C. in a 5% CO2 incubator. The next day, compound dilutions of test compounds were prepared in 100% DMSO followed by dilutions in respective media. Treatment of test compounds was performed for 3 h at 37° C. in 5% CO2 incubator. Following 3 h drug treatment, the conditional media was discarded and the cells were washed once with cPBS (PBS containing 0.1% magnesium chloride hexahydrate and 0.1% anhydrous calcium chloride) and fixed with 4% paraformaldehyde in cPBS for 1 h at rt. After fixing, the cells were given three washes using cPBST (cPBS containing 0.1% Triton™ X-100 reagent) and then blocked using blocking solution (5% skimmed milk powder or 5% BSA prepared in cPBST) for 2 h at rt with shaking at 300 rpm. The cells were again washed thrice with cPBST and incubated with primary antibody phospho-p44/42 MAPK(Erk1/2)(Thr202/204) antibody (Cell Signaling, Catalog # 9101L), phospho S6 ribosomal protein (Cell Signaling, Catalog #4858L), phospho AKT (Thr 308) (Cell Signaling, Catalog #9275) or phospho AKT (Ser 473) (Cell Signaling, Catalog #4060L) in specified dilutions (1:500-1:2500), prepared in respective blocking solutions, in a racker overnight at 4° C. The next day, the cells were washed with 1× Delfia® wash buffer (4×1 wash) and incubated with secondary antibody (Delfia®-Eu-N1 labeled anti-rabbit antibody; PerkinElmer, Catalog #AD0105; dilutions: 1:2000 to 1:6000 in Delfia® assay buffer (PerkinElmer, Catalog #1244-111)) for 2 h at rt in the dark at 300 rpm. The cells were then given four washes with 1× Delfia® wash buffer and incubated with Wallac Delfia® Enhancement solution (100 μL; PerkinElmer, Catalog #1244-105) for 20 min at rt in the dark at 300 rpm. The fluorescence emission was then read at 615 nm with an excitation wavelength of 340 nm using a Victor V5 Fluorometer (Perkin Elmer, US). The cells were then washed once with 1×cPBS and incubated with 100 μL of 0.5 mg/mL of Hoechst 33258 dye prepared in cPBS and read at 460 nm with 355 nm excitation, thereby evaluating the correction factor.
The % inhibition for the test compounds of formula (I) (new chemical entities (NCEs)) was calculated keeping DMSO control as 0% and the IC50 values were determined using sigmoidal dose response curve fit in GraphPad Prism® v5 software.

Experiment [6] deals with RKO cells. Description: XTT assay for cell viability, RKO cells. In kind it is cell-based. The conditions noted are these: Homo sapiens, 72 h. The protocol:
Cell lines (A375 ATCC No. CRL-1619, A2058 ATCC No. CRL-11147 and RKO ATCC No. CRL-2577, American Type Culture Collection (ATCC), Manassas Va.) once attaining ˜80% confluency were trypsinized, centrifuged and resuspended in fresh media. Cells (1000-2000/per well) were seeded in 96-well plate and incubated over-night at 37° C. in a 5% CO2 incubator. Compound dilutions were prepared in 100% DMSO followed by dilutions in the respective media. The cells were treated with NCEs for 72 h at 37° C. in 5% CO2 incubator. After 72 h, freshly prepared XTT (1 mg/ml)/PMS (25 μM) solution was added, incubated for 2 to 3 h at 37° C. and the absorbance was measured at 450 nm using an ELISA plate reader. Keeping DMSO control as 100%, the effect of the compound to inhibit the cell proliferation was calculated and the GI50 values were determined using sigmoidal dose response curve fit in GraphPad Prism® v5 software.
A general note: Formazan colour is commonly taken as a measure of viable cells.

Experiment [7] addresses T3, PI3Kα (Homo sapiens, UniProt P42336).
T3 construct: made in house; host or cells: SF9 cells
Nature of the experiment: PI3 Kinase alpha TR-FRET assay. In kind it is biochemical. On the procedure:
Compound inhibition for PI3Kα was determined in a homogeneous TR-FRET assay using a PI3Kα assay kit (Millipore, US, Catalog #33-016). The PI3 kinase catalyzes phosphorylation of […] (PIP2) to phosphatidylinositol 3,4,5-trisphosphate (PIP3) in the presence of ATP and Mg^2+. The PIP3 product is detected by displacement of biotin-PIP3 from an energy transfer complex consisting of Europium labeled anti-GST monoclonal antibody, a GST-tagged pleckstrin homology (PH) domain, biotinylated PIP3 and Streptavidin-Allophycocyanin (APC). Excitation of Europium in the complex results in an energy transfer to the APC and a fluorescence emission at 665 nm.
Compounds tested were dissolved in DMSO and directly distributed into 384-well plates at a volume of 0.5 μL. P110/P85a/PIP2 mixture (14.5 μL) was added to compound wells and incubated for 30 min at rt […]. P110/P85a was expressed in SF9 cells and purified in-house. 5 ng P110/P85a was used in the assay. The kinase reaction was started by the addition of ATP. The assay concentrations of both PIP2 and ATP were 40 μM. The reaction mixture was incubated for 30 min and was terminated by the addition of stop mix and detection mix. Fluorescence was measured at 615 and 665 nm upon excitation at 340 nm in a Victor V5 fluorometer (Perkin Elmer, US). The fluorescence emission ratio at 665 to 615 nm, proportional to the kinase activity, was plotted against the compound concentration to generate dose-response curves and IC50 values were determined.

SMILES strings stand for the structures.

The text below walks through data of patent US9499495B2, “Quinazolines and azaquinazolines as dual inhibitors of RAS/RAF/MEK/ERK and PI3K/AKT/PTEN/mTOR pathways” (Asana Biosciences, LLC, priority 2013, dated 2016).

T1 sequence (P15056 416-766 V600E limits assumed): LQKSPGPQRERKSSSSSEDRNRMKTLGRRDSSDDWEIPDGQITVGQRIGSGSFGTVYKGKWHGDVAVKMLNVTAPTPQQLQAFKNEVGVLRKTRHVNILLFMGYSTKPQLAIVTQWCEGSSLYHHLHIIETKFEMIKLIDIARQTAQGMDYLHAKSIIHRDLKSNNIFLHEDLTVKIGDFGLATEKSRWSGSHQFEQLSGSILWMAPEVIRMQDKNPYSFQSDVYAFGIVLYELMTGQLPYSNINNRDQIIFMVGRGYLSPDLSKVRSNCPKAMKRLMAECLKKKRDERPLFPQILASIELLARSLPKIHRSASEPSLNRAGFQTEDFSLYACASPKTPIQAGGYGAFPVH
T2 sequence (P42345 1362-2549 limits assumed): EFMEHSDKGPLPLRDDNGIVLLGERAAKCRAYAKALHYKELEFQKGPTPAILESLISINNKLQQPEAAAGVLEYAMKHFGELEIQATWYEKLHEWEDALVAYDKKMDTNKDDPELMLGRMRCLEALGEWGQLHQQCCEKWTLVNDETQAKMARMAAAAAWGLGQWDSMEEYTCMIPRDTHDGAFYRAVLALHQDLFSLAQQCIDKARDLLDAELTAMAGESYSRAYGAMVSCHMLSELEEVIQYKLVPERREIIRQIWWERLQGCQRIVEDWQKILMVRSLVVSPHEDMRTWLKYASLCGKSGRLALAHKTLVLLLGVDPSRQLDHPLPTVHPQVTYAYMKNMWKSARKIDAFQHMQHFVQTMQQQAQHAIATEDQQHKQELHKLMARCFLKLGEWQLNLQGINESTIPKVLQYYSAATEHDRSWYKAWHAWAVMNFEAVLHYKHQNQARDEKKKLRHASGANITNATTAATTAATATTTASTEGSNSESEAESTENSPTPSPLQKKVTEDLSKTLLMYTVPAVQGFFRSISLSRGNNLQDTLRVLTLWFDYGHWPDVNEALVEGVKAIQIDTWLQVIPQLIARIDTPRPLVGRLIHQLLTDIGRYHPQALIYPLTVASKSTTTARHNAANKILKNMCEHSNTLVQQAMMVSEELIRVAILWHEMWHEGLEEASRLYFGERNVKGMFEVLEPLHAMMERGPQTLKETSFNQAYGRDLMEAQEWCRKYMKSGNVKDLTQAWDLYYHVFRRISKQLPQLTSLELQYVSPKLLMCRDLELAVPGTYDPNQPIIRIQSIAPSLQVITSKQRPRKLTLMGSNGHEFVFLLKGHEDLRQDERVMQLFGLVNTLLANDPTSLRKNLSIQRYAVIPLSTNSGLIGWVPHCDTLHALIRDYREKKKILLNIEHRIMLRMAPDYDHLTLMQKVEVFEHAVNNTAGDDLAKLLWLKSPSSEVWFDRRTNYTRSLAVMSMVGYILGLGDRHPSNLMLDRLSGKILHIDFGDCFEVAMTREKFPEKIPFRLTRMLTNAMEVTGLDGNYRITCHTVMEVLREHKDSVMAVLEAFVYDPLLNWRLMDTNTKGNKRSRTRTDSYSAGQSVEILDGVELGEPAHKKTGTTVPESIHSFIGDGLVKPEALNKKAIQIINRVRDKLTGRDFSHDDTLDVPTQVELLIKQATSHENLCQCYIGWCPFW
T3 sequence (P42336 whole entry, species assumed): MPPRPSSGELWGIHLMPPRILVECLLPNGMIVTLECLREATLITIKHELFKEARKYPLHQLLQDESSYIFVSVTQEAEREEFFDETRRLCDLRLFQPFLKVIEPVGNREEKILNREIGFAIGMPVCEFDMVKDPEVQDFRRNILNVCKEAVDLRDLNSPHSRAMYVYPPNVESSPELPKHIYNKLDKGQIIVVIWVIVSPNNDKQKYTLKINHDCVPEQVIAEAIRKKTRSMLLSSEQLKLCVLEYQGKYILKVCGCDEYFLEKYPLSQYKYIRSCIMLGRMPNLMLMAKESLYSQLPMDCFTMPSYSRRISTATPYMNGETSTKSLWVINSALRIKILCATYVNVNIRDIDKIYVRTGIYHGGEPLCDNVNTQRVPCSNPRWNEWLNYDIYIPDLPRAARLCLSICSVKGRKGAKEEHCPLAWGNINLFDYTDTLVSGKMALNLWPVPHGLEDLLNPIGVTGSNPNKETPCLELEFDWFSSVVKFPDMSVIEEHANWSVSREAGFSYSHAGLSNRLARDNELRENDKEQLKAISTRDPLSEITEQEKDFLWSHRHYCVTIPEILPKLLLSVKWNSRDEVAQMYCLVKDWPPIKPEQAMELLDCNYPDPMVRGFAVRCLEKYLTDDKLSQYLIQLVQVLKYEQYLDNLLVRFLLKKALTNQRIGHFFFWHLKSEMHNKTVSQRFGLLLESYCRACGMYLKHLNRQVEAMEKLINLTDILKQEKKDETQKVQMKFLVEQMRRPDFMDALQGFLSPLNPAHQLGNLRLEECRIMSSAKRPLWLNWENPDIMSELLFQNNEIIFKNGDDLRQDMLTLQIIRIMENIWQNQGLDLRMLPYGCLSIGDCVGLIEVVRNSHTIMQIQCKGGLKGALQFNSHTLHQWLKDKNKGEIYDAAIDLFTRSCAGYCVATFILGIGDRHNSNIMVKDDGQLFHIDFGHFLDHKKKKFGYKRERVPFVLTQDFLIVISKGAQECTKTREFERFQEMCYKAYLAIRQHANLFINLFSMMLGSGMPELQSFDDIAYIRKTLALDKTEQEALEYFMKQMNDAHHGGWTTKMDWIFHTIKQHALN
T3 sequence (P27986 whole entry partner, species assumed): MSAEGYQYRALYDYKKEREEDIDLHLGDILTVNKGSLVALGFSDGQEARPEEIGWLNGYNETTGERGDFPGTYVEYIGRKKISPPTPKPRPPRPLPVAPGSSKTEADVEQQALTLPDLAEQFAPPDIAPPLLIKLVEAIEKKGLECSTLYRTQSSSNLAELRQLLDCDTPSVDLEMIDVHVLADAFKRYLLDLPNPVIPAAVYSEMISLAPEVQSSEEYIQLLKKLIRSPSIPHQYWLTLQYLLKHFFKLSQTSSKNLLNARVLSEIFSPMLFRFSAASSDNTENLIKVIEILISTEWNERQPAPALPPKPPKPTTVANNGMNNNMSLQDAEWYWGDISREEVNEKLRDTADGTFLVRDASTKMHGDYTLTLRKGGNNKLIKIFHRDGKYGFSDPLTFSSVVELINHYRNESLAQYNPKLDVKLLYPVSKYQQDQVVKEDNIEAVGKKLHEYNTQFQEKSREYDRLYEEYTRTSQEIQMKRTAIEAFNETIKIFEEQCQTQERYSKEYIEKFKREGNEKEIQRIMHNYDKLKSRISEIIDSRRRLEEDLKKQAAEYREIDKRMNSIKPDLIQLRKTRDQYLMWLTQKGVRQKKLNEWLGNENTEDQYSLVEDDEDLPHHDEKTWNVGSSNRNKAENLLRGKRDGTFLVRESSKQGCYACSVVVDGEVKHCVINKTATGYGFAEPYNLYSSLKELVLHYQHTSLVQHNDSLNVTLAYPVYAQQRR

For `CNC(=O)Nc1ccc(-c2nc(N3CCOCC3)c3cc(-c4cccc(NS(=O)(=O)c5c(F)cccc5F)c4F)cc(OC)c3n2)cc1` [Example 1, 2,6-Difluoro-N-(2-fluoro-3-(8-methoxy-2-(4-(3-methylureido)phenyl)-4-morpholinoquinazolin-6-yl)phenyl)benzenesulfonamide], the IC50 in experiment [1] fell in the range of 1 to 100 nM; in experiment [2], 1 to 100 nM; in experiment [3], 100 to 1000 nM; in experiment [4], 100 to 1000 nM; in experiment [5] it was 100 to 1000 nM; in experiment [6], 1000 to 10000 nM.
`CCCS(=O)(=O)Nc1cccc(-c2cc(C)c3nc(-c4ccc(N)nc4)nc(N4CCOCC4)c3c2)c1F` [Example 8, N-(3-(2-(6-aminopyridin-3-yl)-8-methyl-4-morpholinoquinazolin-6-yl)-2-fluorophenyl)propane-1-sulfonamide]: the IC50 in experiment [1], in experiment [7], in experiment [3], in experiment [4] and in experiment [6] was 100 to 1000 nM each time.
Take `COc1cc(-c2cccc(NS(=O)(=O)CCCF)c2F)cc2c(N3CCOCC3)nc(-c3cnc(N)cc3C(F)(F)F)nc12` [Example 36, N-(3-(2-(6-amino-4-(trifluoromethyl)pyridin-3-yl)-8-methoxy-4-morpholinoquinazolin-6-yl)-2-fluorophenyl)-3-fluoropropane-1-sulfonamide]: the IC50 in experiment [1] was in the range of 1 to 100 nM; in experiment [7], 100 to 1000 nM; in experiment [3], 1 to 100 nM; in experiment [4], 100 to 1000 nM; in experiment [6], 1000 to 10000 nM.
For the compound `COc1cc(-c2cccc(NS(=O)(=O)CCCF)c2F)cc2c(N3CCOCC3)nc(-c3cccc4[nH]ncc34)nc12` [Example 37, N-(3-(2-(1H-indazol-4-yl)-8-methoxy-4-morpholinoquinazolin-6-yl)-2-fluorophenyl)-3-fluoropropane-1-sulfonamide], the IC50 was 1 to 100 nM in experiment [1]; 100 to 1000 nM in experiment [7]; 1 to 100 nM in experiment [3]; 100 to 1000 nM in experiment [4]; 1000 to 10000 nM in experiment [6].
On to `Nc1cc(C(F)(F)F)c(-c2nc(N3CCOCC3)c3nc(-c4cccc(NS(=O)(=O)c5cc(F)ccc5F)c4F)ccc3n2)cn1` [Example 104, N-(3-(2-(6-amino-4-(trifluoromethyl)pyridin-3-yl)-4-morpholinopyrido[3,2-d]pyrimidin-6-yl)-2-fluorophenyl)-2,5-difluorobenzenesulfonamide], for which the IC50 lay within 1 to 100 nM in experiment [1]; 1 to 100 nM in experiment [7]; 1 to 100 nM in experiment [3]; 1 to 100 nM in experiment [4]; 100 to 1000 nM in experiment [5].
As for `CC(C)Nc1ccc(-c2nc(N3CCOCC3)c3nc(-c4cccc(NS(=O)(=O)CCCF)c4F)ccc3n2)cn1` [Example 114, 3-fluoro-N-(2-fluoro-3-(2-(6-(isopropylamino)pyridin-3-yl)-4-morpholinopyrido[3,2-d]pyrimidin-6-yl)phenyl)propane-1-sulfonamide], the IC50 in experiment [1] was 1 to 100 nM; in experiment [2] it was 100 to 1000 nM; in experiment [3] it was 1 to 100 nM; in experiment [4], 100 to 1000 nM; in experiment [6], 100 to 1000 nM.
On to `Cc1cc(-c2cccc(NS(=O)(=O)CCCF)c2F)cc2c(N3CCOCC3)nc(-c3ccc(N)nc3)nc12` [Example 117, N-(3-(2-(6-aminopyridin-3-yl)-8-methyl-4-morpholinoquinazolin-6-yl)-2-fluorophenyl)-3-fluoropropane-1-sulfonamide], for which the IC50 lay in the range of 1 to 100 nM in experiment [1]; 1 to 100 nM in experiment [2]; 1 to 100 nM in experiment [3]; 100 to 1000 nM in experiment [4]; 1000 to 10000 nM in experiment [6].
Consider `CNc1ncc(-c2nc(N3CCOC[C@H]3C)c3cc(-c4cccc(NS(=O)(=O)CCCF)c4F)cc(OC)c3n2)cn1` [Example 136, (R)-3-fluoro-N-(2-fluoro-3-(8-methoxy-2-(2-(methylamino)pyrimidin-5-yl)-4-(3-methylmorpholino)quinazolin-6-yl)phenyl)propane-1-sulfonamide], for which the IC50 in experiment [1] fell in the range of 1 to 100 nM; in experiment [2], 100 to 1000 nM; in experiment [5], 1 to 100 nM; in experiment [6], 100 to 1000 nM.
For `CCOc1cc(-c2cccc(NS(=O)(=O)CCCF)c2F)cc2c(N3CCOC[C@H]3C)nc(-c3cnc(N)nc3)nc12` [Example 137, (R)-N-(3-(2-(2-aminopyrimidin-5-yl)-8-ethoxy-4-(3-methylmorpholino)quinazolin-6-yl)-2-fluorophenyl)-3-fluoropropane-1-sulfonamide], the IC50 lay within 1 to 100 nM in experiment [1]; 100 to 1000 nM in experiment [2]; 1 to 100 nM in experiment [3]; 100 to 1000 nM in experiment [4]; 1 to 100 nM in experiment [5]; 1 to 100 nM in experiment [6].
